Experimental data reported in patent publication US20230091047A1 (priority 2019, published 2023).
Like-named read-outs stand apart in the source and are kept apart here.

Tests used:
[1] = system: HBV (HepG2.117 cell line, inducibly HBV producing); assay: Anti-HBV activity: intracellular HBV DNA by real-time PCR in HepG2.117 cells after 3 days of treatment; assay type: cell-based, hepatitis B virus
In short: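 Antiviral effect is expressed through intracellular HBV DNA levels, determined by real-time PCR with a virus-specific probe. These levels were measured after 3 days of treatment with compound dilutions, in HepG2.117 cells induced to replicate HBV.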

in vitro = assay type: cell-based; conditions: human, HepG2 or HepG2.117 cells, ATPlite, mean value
In short: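 Luminescent ATP quantitation served as the viability endpoint following a 3- or 4-day incubation with test compounds.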

[2] = Hepatitis B virus, HepG2.117, 72 h, HepG2.117 cells, 3 days of treatment, intracellular HBV DNA by real-time PCR; mean value; read-out: EC50 (μM, mean value)
[3] = 3-days incubation (unmarked values)
[4] = Hepatitis B virus, HepG2.117, 72 h, HepG2.117 cells, intracellular HBV DNA by real-time PCR, 3 days of treatment, mean value; read-out: EC50 (μM, mean value)
[5] = 3-days incubation (not marked with *)

## COc1ccc(CNc2nc3c(c(=O)[nH]2)CCN(C(=O)c2ccc(Br)c(F)c2)C3)cc1 [Compound C69, 7-(4-bromo-3-fluorobenzoyl)-2-{[(4-methoxyphenyl)methyl]amino}-5,6,7,8-tetrahydropyrido[3,4-d]pyrimidin-4(3H)-one]
[1]; [2]
  EC50: 10 µM
In vitro; [3]
  CC50 at 3 days: 21 µM

## COc1ccc(CNc2nc3c(c(=O)n2CCNS(C)(=O)=O)CCN(C(=O)c2ccc(Cl)c(Cl)c2)C3)cc1 [Compound C111, N-{2-[7-(3,4-dichlorobenzoyl)-2-{[(4-methoxyphenyl)methyl]amino}-4-oxo-5,6,7,8-tetrahydropyrido[3,4-d]pyrimidin-3(4H)-yl]ethyl}methanesulfonamide]
[1]; [2]
  EC50: 7.64 µM
In vitro; [3]
  CC50 at 3 days: > 50 µM

## CNC(=O)c1ccc(-n2c(N[C@@H](C)c3ccc(C(F)(F)F)cc3)nc3c(c2=O)C[C@@H](C)N(C(=O)c2ccc(Cl)c(Cl)c2)C3)cn1 [Compound C533]
[1]; [4]
  EC50: 0.11 µM
In vitro; [5]
  CC50 at 3 days: > 50 µM

## COc1ccccc1-n1c(NCc2ccc(Cl)cc2Cl)nc2c(c1=O)CCN(C(=O)c1ccc(Cl)c(Cl)c1)C2 [Compound C30, 7-(3,4-dichlorobenzoyl)-2-{[(2,4-dichlorophenyl)methyl]amino}-3-(2-methoxyphenyl)-5,6,7,8-tetrahydropyrido[3,4-d]pyrimidin-4(3H)-one]
[1]; [2]
  EC50: > 50 µM
In vitro; [3]
  CC50 at 3 days: > 50 µM

## CC(C)Nc1nc2c(c(=O)n1-c1ccc(S(C)(=O)=O)cc1)CCN(C(=O)c1ccc3nccn3c1)C2 [Compound C359]
[1]; [2]
  EC50: > 50 µM
In vitro; [3]
  CC50 at 3 days: > 50 µM

## CNC(=O)c1ccc(-n2c(N[C@H](C)c3ccc4c(c3)OCO4)nc3c(c2=O)C[C@@H](C)N(C(=O)c2ccc(Cl)c(Cl)c2)C3)cc1 (single isomer, unassigned) [Compound C414a]
[1]; [4]
  EC50: 0.29 µM
In vitro; [5]
  CC50 at 3 days: > 50 µM

## CNC(=O)c1cc(-n2c(NC(C)C)nc3c(c2=O)C[C@@H](C)N(C(=O)c2ccc(Cl)c(Cl)c2)C3)n(C(C)C)n1 [Compound C424]
[1]; [4]
  EC50: 0.93 µM
In vitro; [5]
  CC50 at 3 days: > 50 µM

## CNC(=O)c1ccc(-n2c(NC(C)C)nc3c(c2=O)C[C@@H](C)N(C(=O)c2ccc(Br)c(C)c2F)C3)cc1 [Compound C584]
[1]; [4]
  EC50: 0.1 µM
In vitro; [5]
  CC50 at 3 days: > 50 µM

## COc1ccc(CNc2nc3c(c(=O)[nH]2)CCN(C(=O)c2ccc(Cl)c(C)c2)C3)cc1 [Compound C60, 7-(4-chloro-3-methylbenzoyl)-2-{[(4-methoxyphenyl)methyl]amino}-5,6,7,8-tetrahydropyrido[3,4-d]pyrimidin-4(3H)-one]
[1]; [2]
  EC50: 3.25 µM
In vitro; [3]
  CC50 at 3 days: 23.8 µM

## Cc1noc2cc(-n3c(NC(C)C)nc4c(c3=O)C[C@@H](C)N(C(=O)c3ccc(Cl)c(Cl)c3)C4)ccc12 [Compound C395]
[1]; [4]
  EC50: 0.15 µM
In vitro; [5]
  CC50 at 3 days: > 50 µM

## COc1ccc(CNc2nc3c(c(=O)n2-c2ccccc2OC)C[C@@H](C)N(C(=O)c2ccc(Cl)c(Cl)c2)C3)cc1 (single isomer, unassigned) [Compound C36Aa]
[1]; [2]
  EC50: 0.31 µM
In vitro; [3]
  CC50 at 3 days: > 50 µM

## CNC(=O)c1ccc(-n2c(NC3CC3)nc3c(c2=O)C[C@@H](C)N(C(=O)c2ccc(Cl)c(Cl)c2)C3)cc1 [Compound C329, 4-[(6R)-2-(cyclopropylamino)-7-(3,4-dichlorobenzoyl)-6-methyl-4-oxo-5,6,7,8-tetrahydropyrido[3,4-d]pyrimidin-3(4H)-yl]-N-methylbenzamide]
[1]; [2]
  EC50: 0.55 µM
In vitro; [3]
  CC50 at 3 days: > 50 µM

## CNC(=O)c1ccc(-n2c(N[C@@H](C)c3cccc(C(F)F)c3)nc3c(c2=O)C[C@@H](C)N(C(=O)c2ccc(Cl)c(Cl)c2)C3)cc1 (single isomer, unassigned) [Compound C660b]
[1]; [4]
  EC50: 0.32 µM
In vitro; [5]
  CC50 at 3 days: 27.5 µM

## O=C(c1ccc(Cl)c(Cl)c1)N1CCc2c(nc(NC(CO)CO)[nH]c2=O)C1 [Compound C98, 7-(3,4-dichlorobenzoyl)-2-[(1,3-dihydroxypropan-2-yl)amino]-5,6,7,8-tetrahydropyrido[3,4-d]pyrimidin-4(3H)-one]
[1]; [2]
  EC50: 36.5 µM
In vitro; [3]
  CC50 at 3 days: > 50 µM

## CCOC(=O)c1ccc(-n2c(NCc3ccc(OC)cc3)nc3c(c2=O)CCN(C(=O)c2ccc(Cl)c(Cl)c2)C3)cc1 [Compound C121, ethyl 4-[7-(3,4-dichlorobenzoyl)-2-{[(4-methoxyphenyl)methyl]amino}-4-oxo-5,6,7,8-tetrahydropyrido[3,4-d]pyrimidin-3(4H)-yl]benzoate]
[1]; [2]
  EC50: 1.55 µM
In vitro; [3]
  CC50 at 3 days: > 50 µM

## CNC(=O)c1ccc(-n2c(N[C@@H](C)c3ccc(C)cc3)nc3c(c2=O)C[C@@H](C)N(C(=O)c2ccc(Cl)c(Cl)c2)C3)cc1 [Compound C431]
[1]; [4]
  EC50: 0.03 µM
In vitro; [5]
  CC50 at 3 days: 20.6 µM

## CNC(=O)c1ncc(-n2c(N[C@@H](C)c3ccc(OC(F)(F)F)cc3)nc3c(c2=O)C[C@@H](C)N(C(=O)c2ccc(Cl)c(Cl)c2)C3)n1C [Compound C620]
[1]; [4]
  EC50: 0.17 µM
In vitro; [5]
  CC50 at 3 days: > 50 µM

## CNC(=O)c1ccc(-n2c(NC(C)C)nc3c(c2=O)CCN(C(=O)c2ccc(Cl)c(Cl)c2)C3)cc1F [Compound C219, 4-[7-(3,4-dichlorobenzoyl)-4-oxo-2-[(propan-2-yl)amino]-5,6,7,8-tetrahydropyrido[3,4-d]pyrimidin-3(4H)-yl]-2-fluoro-N-methylbenzamide]
[1]; [2]
  EC50: 0.28 µM
In vitro; [3]
  CC50 at 3 days: > 50 µM

## CC(C)Nc1nc2c(c(=O)n1-c1ccc(S(C)(=O)=O)c(C(F)F)c1)C[C@@H](C)N(C(=O)c1ccc(Cl)c(Cl)c1)C2 [Compound C385]
[1]; [4]
  EC50: 0.86 µM
In vitro; [5]
  CC50 at 3 days: > 50 µM

## CC(C)Nc1nc2c(c(=O)n1-c1ccncc1)CCN(C(=O)c1ccc(Cl)c(Cl)c1)C2 [Compound C122, 7-(3,4-dichlorobenzoyl)-2-[(propan-2-yl)amino]-3-(pyridin-4-yl)-5,6,7,8-tetrahydropyrido[3,4-d]pyrimidin-4(3H)-one]
[1]; [2]
  EC50: 1.44 µM
In vitro; [3]
  CC50 at 3 days: > 50 µM

## CC(C)Nc1nc2c(c(=O)n1-c1ccc(-c3cnccn3)cc1)CCN(C(=O)c1ccc(Cl)c(Cl)c1)C2 [Compound C176, 7-(3,4-dichlorobenzoyl)-2-[(propan-2-yl)amino]-3-[4-(pyrazin-2-yl)phenyl]-5,6,7,8-tetrahydropyrido[3,4-d]pyrimidin-4(3H)-one]
[1]; [2]
  EC50: 0.57 µM
In vitro; [3]
  CC50 at 3 days: 8.7 µM

## CC(C)Nc1nc2c(c(=O)n1-c1ccc(S(C)(=O)=O)cc1)CCN(C(=O)C1Cc3ccccc3N1)C2 (centres unmarked) [Compound C184, 7-(2,3-dihydro-1H-indole-2-carbonyl)-3-[4-(methanesulfonyl)phenyl]-2-[(propan-2-yl)amino]-5,6,7,8-tetrahydropyrido[3,4-d]pyrimidin-4(3H)-one]
[1]; [2]
  EC50: 0.71 µM
In vitro; [3]
  CC50 at 3 days: > 50 µM

## CNC(=O)c1ccc(-n2c(NC(C)C)nc3c(c2=O)C[C@@H](C)N(C(=O)c2cc(Br)c(Cl)cc2OC)C3)cc1 [Compound C523]
[1]; [4]
  EC50: 18 µM
In vitro; [5]
  CC50 at 3 days: > 50 µM

## CNC(=O)c1ccc(-n2c(NCc3ncnn3C)nc3c(c2=O)C[C@@H](C)N(C(=O)c2ccc(Cl)c(Cl)c2)C3)cc1 [Compound C561]
[1]; [4]
  EC50: > 25 µM
In vitro; [5]
  CC50 at 3 days: > 50 µM

## CNC(=O)c1ccc(-n2c(NC(CC3CC3)c3ccccc3)nc3c(c2=O)C[C@@H](C)N(C(=O)c2ccc(Cl)c(Cl)c2)C3)cc1 (some centres unmarked) [Compound C437]
[1]; [4]
  EC50: 0.44 µM
In vitro; [5]
  CC50 at 3 days: 28.1 µM
